Test results published in article PMC8073907, “Peptide targeting of lysophosphatidylinositol-sensing GPR55 for osteoclastogenesis tuning” (Cell Communication and Signaling : CCS, 2021).

Key:
Format in all cases: cell-based, human
[1] = system: ssGPR55-K80A and ssGPR55-Q87A; test: LPI-induced MAPK activation in shGPR55-HeLa clones expressing ssGPR55 mutants; details: 10 µM 18:0 LPI
Description: (§1) The construct of haemagglutinin (HA)-tagged human GPR55 in pcDNA3 (HA-GPR55) was a gift from Prof. K. Mackie, Indiana University, Bloomington, IN, USA [39], while the construct ss-3 × HA-GPR55 in pcDNA3.1 (ssGPR55) with a triple HA tag at the N-terminus and an optimised signal sequence (ss, derived from amino acids 1–33 of the human growth hormone: […]) for efficient surface expression was from Prof. A. Irving, Dundee University, UK [40]. For both constructs, mutations were introduced by site-directed mutagenesis using QuickChange kits (Stratagene, La Jolla, CA, USA), according to the manufacturer instructions. The primers for the K80A mutation were 5′-[…]-3′ and 5′-[…]-3′ (Tm, 70.6 °C), and for Q87A were 5′-[…]-3′ and 5′-[…]-3′ (Tm, 73.1 °C).
HeLa cells were plated at 1.5 × 10^5 cells/well in six-well plates in their growth medium without antibiotics. Twenty-four hours later, the cells were transfected with 2.5 µg/well pcDNA3.1, or the mutants ssGPR55-K80A, ssGPR55-Q87A, or 1.25 µg/well (complemented with 1.25 µg/well empty vector) ssGPR55, using Lipofectamine 2000, according to the manufacturer instructions. The different cDNA amounts were necessary to reach equivalent plasma-membrane expression of the receptors, as the mutants were expressed at lower levels, as verified by FACS analyses, and in line with previous reports.
For stable interference of GPR55, HeLa cells were plated at 1.5 × 10^5 cells/well in six-well plates in growth medium without antibiotics, and 24 h later, the cells were transfected with 1.7 µg/well OmicsLink short hairpin (sh)RNA expression clone CSHCTR001-CU6 (shCTRL) or clone HSH022476-3-CU6 (shGPR55) from GeneCopoeia (Rockville, MD, USA), using Lipofectamine 2000, according the manufacturer instructions. Forty-eight hours after transfection, HeLa clones stably expressing shRNAs were selected in growth medium containing 0.3 µg/mL puromycin. The efficiency of interference was monitored by real-time PCR using the primers listed in the Additional file 1: Table S1. HPRT1 was followed as a housekeeping gene. […]

ssGPR55-Q87A = test: GPR55-internalisation assay, Q87A mutant (FACS); details: HeLa, 10 µM soybean LPI, 15 min, three independent experiments
Description: as §1
(§2) HeLa cells were plated at 1.5 × 10^5 cells/well in six-well plates in their growth medium without antibiotics. […]
(§3) For the GPR55-internalisation assay, after stimulation, the HeLa cells were washed twice with cold HBSS^++, stained while adhered with the monoclonal anti-HA antibody (1:1000) in PBS plus 3% BSA for 1 h on ice, washed three times with cold PBS, incubated with the Alexa488-tagged anti-mouse antibody (1:800) in PBS plus 3% BSA for 45 min on ice. […] The collected cells were centrifuged at 300×g, suspended in PBS plus 3% BSA, and analysed by FACS.

ssGPR55-K80A = test: GPR55-internalisation assay, K80A mutant (FACS); details: ssGPR55-K80A, HeLa; 10 µM soybean LPI, 15 min; three independent experiments
Description: as §1, §2, §3

## lysophosphatidylinositol [LPI]
[1]
  LPI-stimulated activation of p38: no LPI-stimulated activation of p38
[1]; 5 min
  LPI-stimulated activation of ERK2, 5 min: no response at 5 min
[1]; 10 min
  LPI-stimulated activation of ERK2, 10 min: reduced response at 10 min
ssGPR55-Q87A
  reduction of cell-surface level of receptor: 15%
ssGPR55-K80A
  change of cell-surface level of receptor: not changed
